Experiments:
CYP17A1 [1] = details: actual (literature) activity of training/test set compounds, cited from earlier work; for IC50: unit nM
[2] = tested on: CYP1A2, CYP2C9, CYP2C19, CYP2D6, and CYP3A4; experiment: Summary of inhibition of metabolic CYP450 isoforms (5 CYP panel); assay type: in vitro ADME, human; details: Table 2
[3] = Toxicity studies on the molecules in Table 2
Solubility in DMSO = assay type: physicochemical
CYP17A1 [4] = target: CYP17A1 (Homo sapiens (Human), UniProt P05093); experiment: CYP17A1 inhibition, CYP17A1 bactosomes, progesterone substrate, LC-MS/MS; assay type: biochemical; details: Table 2
Method: CYP17A1 inhibition was measured using 20 pmol/ml CYP17A1 bactosomes (Cypex, Dundee, UK) and 0.1 μM progesterone as a substrate and 1 mM NADPH in 50 mM potassium phosphate buffer pH 7.4 containing 5 mM magnesium chloride. Inhibitors were dissolved in DMSO and serially diluted in seven ½ log steps, final concentrations ranging from 50 μA to 50 nM. Reaction volume was 100 μl and final DMSO concentration was 1% (v/v). Reactions were started by the addition of NADPH and incubated at 37° C. for 20 minutes with shaking at 1800 rpm on a Bioshake IQ (Q-Instruments, Jena, Germany). Reactions were terminated by the addition of 200 μl methanol containing 1 μM tolbutamide as an internal standard.

CYP19A1 = CYP19A1 (Homo sapiens (Human), UniProt P11511); experiment: CYP19A1 inhibition, CYP19/MFC High Throughput Inhibitor Screen Kit, fluorescence; assay type: biochemical; details: Table 2
Method: Test compounds and control inhibitors were prepared as stocks in either Acetonitrile or DMSO from the solid compound. Compounds were serially diluted in ½ log steps in the same solvent. CYP19A1 inhibition experiments were performed using the CYP19/MFC High Throughput Inhibitor Screen Kit (Corning). Test compounds were tested in seven concentrations: […] CYP19A1 reactions were performed in black 96 well-plates (Greiner) according to the manufacturer's instructions. […] Final organic solvent concentrations were either 4% (v/v) acetonitrile or 0.5% (v/v) Dimethyl sulfoxide. The plates were covered with self-adhesive film lids and incubated for 10 minutes at 37° C. Reactions were terminated by the addition of 75 μl Stop Solution (100 mM Tris base in acetonitrile: MilliQ water (80:20). […] The CYP activities for each test compound/positive control inhibitor at each concentration were converted to % of control activity (CA). The LC-MS/MS peak responses (CYP metabolite peak area/internal standard peak area) for each test compound or positive control inhibitor were used and the response for each sample was expressed as a percentage of an uninhibited control (DMSO incubation).

CYP17A1 and CYP19A1 = experiment: Classification as Dual Inhibitor (inhibitor of both CYP17A1 and CYP19A1); details: inhibitors of both CYP17A1 and CYP19A1

Chain of CYP19A1 (P11511 whole entry): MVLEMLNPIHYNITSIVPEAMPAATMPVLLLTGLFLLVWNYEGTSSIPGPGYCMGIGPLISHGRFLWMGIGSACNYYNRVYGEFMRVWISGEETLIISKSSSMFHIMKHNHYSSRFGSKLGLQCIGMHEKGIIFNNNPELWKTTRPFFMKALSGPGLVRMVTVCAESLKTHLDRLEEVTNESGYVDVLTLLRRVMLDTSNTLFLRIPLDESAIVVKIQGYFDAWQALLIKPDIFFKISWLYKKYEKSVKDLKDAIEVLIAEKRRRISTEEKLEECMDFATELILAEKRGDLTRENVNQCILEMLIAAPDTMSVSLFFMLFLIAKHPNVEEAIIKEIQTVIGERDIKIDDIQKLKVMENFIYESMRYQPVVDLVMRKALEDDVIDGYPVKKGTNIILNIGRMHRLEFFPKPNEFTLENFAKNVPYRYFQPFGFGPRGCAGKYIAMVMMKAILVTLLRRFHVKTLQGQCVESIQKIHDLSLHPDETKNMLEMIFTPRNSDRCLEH
Chain of CYP17A1 (Homo sapiens (Human), UniProt P05093) (P05093 whole entry): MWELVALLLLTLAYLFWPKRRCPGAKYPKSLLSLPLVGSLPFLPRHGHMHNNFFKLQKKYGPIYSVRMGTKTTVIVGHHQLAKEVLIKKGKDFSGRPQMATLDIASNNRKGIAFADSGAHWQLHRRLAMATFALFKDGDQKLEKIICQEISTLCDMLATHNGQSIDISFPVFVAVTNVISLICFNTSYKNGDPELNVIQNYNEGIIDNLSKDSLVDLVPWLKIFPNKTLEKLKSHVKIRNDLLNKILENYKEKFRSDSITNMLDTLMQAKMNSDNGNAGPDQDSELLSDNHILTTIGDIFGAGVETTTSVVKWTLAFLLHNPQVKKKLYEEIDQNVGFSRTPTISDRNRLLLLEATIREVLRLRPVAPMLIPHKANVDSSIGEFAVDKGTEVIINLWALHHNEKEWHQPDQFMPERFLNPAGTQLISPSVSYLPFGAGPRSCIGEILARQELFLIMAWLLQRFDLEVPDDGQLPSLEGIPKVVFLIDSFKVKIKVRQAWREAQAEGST

Compound	pIC50 (CYP17A1 [1])	IC50 (CYP17A1 [1])	also measured
NC(=O)c1ccc2cc(C3(O)CCn4cncc43)ccc2c1 (racemic) [3b [11]]	7.540	29 nM	
CNC(=O)c1ccc2cc(C3CCn4cncc43)ccc2c1 (racemic) [3d [11]]	7.890	13 nM	
c1ccc(-c2ccc3c(c2)CCC3n2ccnc2)cc1 (racemic) [5ay [7]]	6.620	240 nM	
O=C(NC1CC1)c1ccc2cc(C3(O)CCn4cncc43)ccc2c1 (racemic) [5bx [7]]	6.600	250 nM	
CC(C)C(O)(c1ccc(-c2ccccc2)cc1)c1c[nH]cn1 (racemic) [7 [12]]	7.480	33 nM	
COc1ccc(-c2ccc(C(O)(c3c[nH]cn3)C(C)C)cc2)cc1 (racemic) [8 [12]]	7.270	54 nM	
CC(c1ccc(-c2ccsc2)cc1)n1ccnc1 (racemic) [12 [9]]	6.050	876 nM	
CC(C)C(O)(c1cccc(-c2ccc(F)cc2)c1)c1c[nH]cn1 (racemic) [13 [12]]	7.720	19 nM	
CC(C)C(O)(c1ccc(-c2ccc(F)cc2)cc1)c1c[nH]cn1 (racemic) [15 [12]]	7.570	27 nM	
COc1ccc(-c2ccc3c(c2)CCCC3(O)c2ccncc2)cc1F (racemic) [16 [9]]	5.480	3340 nM	
CC(C)C(O)(c1ccc(-c2ccc(Cl)cc2)cc1)c1c[nH]cn1 (racemic) [16 [12]]	7.550	28 nM	
CCNC(=O)c1ccc2cc(C3(O)CCn4cncc43)ccc2c1 (racemic) [25 [2]]	6.730	186 nM	
CC(=O)Nc1cccc(-c2ccc(C(C)(O)c3c[nH]cn3)cc2)c1 (racemic) [32 [12]]	7.420	38 nM	
CCC(O)(c1ccc(-c2cccc(NC(C)=O)c2)cc1)c1c[nH]cn1 (racemic) [33 [12]]	7.400	40 nM	
CC(=O)Nc1cccc(-c2ccc(C(O)(c3c[nH]cn3)C3CC3)cc2)c1 (racemic) [34 [12]]	7.350	45 nM	
CNC(=O)c1ccc2cc(C(O)(c3cnc[nH]3)C(C)C)ccc2c1 (centres unmarked) [1 [11]]	7.800	16 nM	
Brc1ccc(Cc2ccncc2)cc1 [3g [11]]	6.400	400 nM	
Oc1cccc(-c2ccc(Cc3ccncc3)cc2)c1 [3i [11]]	7.060	88 nM	
CC(c1ccc(-c2ccc(F)cc2)cc1)n1ccnc1 (centres unmarked) [4 [9], 4-fluoro-4-[1-(1H-imidazolyl)ethyl]biphenyl]	6.610	248 nM	
Oc1ccc(-c2ccc(Cc3ccncc3)cc2)cc1F [5ax [7]]	6.770	170 nM	
Oc1ccc(-c2ccc(Cc3ccncc3)cc2)cc1O [9 [9]]	7.280	52 nM	
COc1ccc(-c2ccc(Cc3ccncc3)cc2)cc1OC [9a [9]]	7.280	52 nM	
CC(C)=C(c1ccncc1)c1ccc(-c2cccc(O)c2)cc1 [13 [2]]	7.250	56 nM	

Compound	pIC50 (CYP17A1 [1])	IC50 (CYP17A1 [1])	also measured
COc1ccc2cc(-c3ccc(Cc4ccncc4)cc3)ccc2c1 [13 [9]]	5.750	1790 nM	
CC(C)C(O)(c1cccc(-c2ccc(Cl)cc2)c1)c1c[nH]cn1 (centres unmarked) [14 [12]]	7.310	49 nM	
CC(C)=C(c1ccncc1)c1ccc(-c2ccc(O)c(F)c2)cc1 [15 [2]]	7.120	75 nM	
Cl.Fc1ccc(-c2ccc3c(c2)CCC3c2cccnc2)cc1 (centres unmarked) [15 [13]]	4.700	20000 nM	
CC(C)=C(c1ccncc1)c1ccc(-c2ccc(O)c(O)c2)cc1 [16 [2]]	7.430	37 nM	
CC(=O)Nc1cccc(-c2ccc(C(O)(c3c[nH]cn3)C(C)C)cc2)c1 (centres unmarked) [17 [12]]	7.620	24 nM	
Br.Oc1ccc(-c2ccc3c(c2)CCCC3c2ccncc2)cc1F (centres unmarked) [20 [13]]	7.190	64 nM	
CC(C)=C(c1ccncc1)c1ccc(-c2ccc(N)c(N)c2)cc1 [22 [2]]	7.120	75 nM	
CNC(=O)c1cccc(-c2ccc(C(O)(c3c[nH]cn3)C(C)C)cc2)c1 (centres unmarked) [22 [12]]	7.360	44 nM	
CNC(=O)Nc1cccc(-c2ccc(C(O)(c3c[nH]cn3)C(C)C)cc2)c1 (centres unmarked) [24 [12]]	7.680	21 nM	
CC(=O)Nc1cccc(-c2ccc(C(O)(c3c[nH]cn3)C(C)C)cc2)n1 (centres unmarked) [26 [12]]	7.440	36 nM	
Oc1ccc(-c2ccc(Cc3ccncc3)cc2)cc1 [30 [10]]	6.630	236 nM	
CCc1ccc(NC(=O)c2cc(C(=O)c3cc(OC)ccc3O)coc2=N)cc1 [Compound 1, N-(4-ethylphenyl)-5-(2-hydroxy-5-methoxybenzoyl)-2-imino-2H-pyran-3-carboxamide]			inhibition of various CYP450 isoforms (drug-drug interaction) [2]: inhibit various CYP450 isoforms; safety profile [3]: reasonably good safety profiles; Soluble in DMSO (Solubility in DMSO): Yes; inhibitory potency of CYP17A1, level in words (CYP17A1 [4]): micromolar levels
O=C(CSc1nnc(-c2c[nH]c3ccccc23)n1Cc1ccco1)NCc1ccccc1Cl [Compound 2, N-[(2-chlorophenyl)methyl]-2-({4-[(furan-2-yl)methyl]-5-(1H-indol-3-yl)-4H-1,2,4-triazol-3-yl}sulfanyl)acetamide]			inhibition of various CYP450 isoforms (drug-drug interaction) [2]: inhibit various CYP450 isoforms; safety profile [3]: reasonably good safety profiles; Soluble in DMSO (Solubility in DMSO): Yes; inhibitory potency of CYP17A1, level in words (CYP17A1 [4]): micromolar levels
COC(C)C(=O)Nc1cccc(NC(C(N)=O)c2ccccc2)c1 (centres unmarked) [Compound 5, N-(3-{[carbamoyl(phenyl)methyl]amino}phenyl)-2-methoxypropanamide]			safety profile [3]: excellent safety profiles; Soluble in DMSO (Solubility in DMSO): Yes
O=C1COc2cc(NCc3cccc(NC(=O)c4ccccc4Cl)c3)c(Cl)cc2N1 [Compound 7, 2-chloro-N-(3-{[(6-chloro-3-oxo-3,4-dihydro-2H-1,4-benzoxazin-7-yl)amino]methyl}phenyl)benzamide]			IC50 values against CYP19A1, potency level in words (CYP19A1): sub-micromolar inhibitory potency levels; Dual Inhibitor classification (CYP17A1 and CYP19A1): Dual Inhibitors; safety profile [3]: excellent safety profiles; Soluble in DMSO (Solubility in DMSO): Yes; inhibitory potency of CYP17A1, level in words (CYP17A1 [4]): micromolar levels
O=C1COc2cc(NCc3cccc(C(=O)Nc4cccnc4)c3)c(O)cc2N1 [Compound 8, 3-{[(6-hydroxy-3-oxo-3,4-dihydro-2H-1,4-benzoxazin-7-yl)amino]methyl}-N-(pyridin-3-yl)benzamide]			IC50 values against CYP19A1, potency level in words (CYP19A1): sub-micromolar inhibitory potency levels; safety profile [3]: excellent safety profiles; Soluble in DMSO (Solubility in DMSO): Yes
O=C(Nc1ccccc1O)c1ccc(Oc2cccc(C(=O)Nc3ccccc3O)c2)cc1 [Compound 9, N-(2-hydroxyphenyl)-4-{3-[(2-hydroxyphenyl)carbamoyl]phenoxyl}benzamide]			safety profile [3]: excellent safety profiles; Soluble in DMSO (Solubility in DMSO): Yes; inhibitory potency of CYP17A1, level in words (CYP17A1 [4]): micromolar levels
O=C1COc2cc(NCc3cccc(C(=O)Nc4cccnc4)c3)ccc2N1 [Compound 10, 3-{[(3-oxo-3,4-dihydro-2H-1,4-benzoxazin-7-yl)amino]methyl}-N-(pyridin-3-yl)benzamide]			IC50 values against CYP19A1, potency level in words (CYP19A1): sub-micromolar inhibitory potency levels; Dual Inhibitor classification (CYP17A1 and CYP19A1): Dual Inhibitors; safety profile [3]: excellent safety profiles; Soluble in DMSO (Solubility in DMSO): Yes; inhibitory potency of CYP17A1, level in words (CYP17A1 [4]): micromolar levels
O=C1COc2cc(NCc3cccc(C(=O)Nc4ccccc4O)c3)ccc2N1 [Compound 11, N-(2-hydroxyphenyl)-3-{[(3-oxo-3,4-dihydro-2H-1,4-benzoxazin-7-yl)amino]methyl}benzamide]			IC50 values against CYP19A1, potency level in words (CYP19A1): sub-micromolar inhibitory potency levels; inhibition of various CYP450 isoforms (drug-drug interaction) [2]: inhibit various CYP450 isoforms; safety profile [3]: reasonably good safety profiles; Soluble in DMSO (Solubility in DMSO): Yes
O=C1COc2cc(NCc3cccc(C(=O)Nc4cccnc4)c3)c(Cl)cc2N1 [Compound 13, 3-{[(6-chloro-3-oxo-3,4-dihydro-2H-1,4-benzoxazin-7-yl)amino]methyl}-N-(pyridin-3-yl)benzamide]			IC50 values against CYP19A1, potency level in words (CYP19A1): sub-micromolar inhibitory potency levels; inhibition of various CYP450 isoforms (drug-drug interaction) [2]: inhibit various CYP450 isoforms; Dual Inhibitor classification (CYP17A1 and CYP19A1): Dual Inhibitors; safety profile [3]: reasonably good safety profiles; Soluble in DMSO (Solubility in DMSO): Yes
CNC(=O)c1ccc2cc([C@@]3(O)CCn4cncc43)ccc2c1 [TAK700]	7.550	28 nM	
